Measurements from ChEMBL document CHEMBL1201861, “Genomics of Drug Sensitity in Cancer screening data, Wellcome Trust Sanger Institute”.
pIC50: −log10 of the molar value.

Tests used:
[1] = tested on: NCI-H524; test: cells; format: functional, cell-based; conditions: Homo sapiens;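 also: growth inhibition of human NCI-H524 cells, read out through a cell viability assay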
Description: SANGER: Inhibition of human NCI-H524 cell growth in a cell viability assay.

[2] = tested on: NCI-H1417; test: cells; format: functional, cell-based; conditions: Homo sapiens;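 also: human NCI-H1417 cells, growth inhibition determined with a cell viability readout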
Description: SANGER: Inhibition of human NCI-H1417 cell growth in a cell viability assay.

[3] = tested on: H4; test: cells; format: functional, cell-based; conditions: Homo sapiens
Description: SANGER: Inhibition of human H4 cell growth in a cell viability assay.

[4] = tested on: MDA-MB-175-VII; test: cells; format: functional, cell-based; conditions: Homo sapiens
[5] = tested on: MDA-MB-453; test: cells; format: functional, cell-based; conditions: Homo sapiens
Description: SANGER: Inhibition of human MDA-MB-453 cell growth in a cell viability assay.

[6] = tested on: BHT-101; test: cells; format: functional, cell-based; conditions: Homo sapiens
Description: SANGER: Inhibition of human BHT-101 cell growth in a cell viability assay.

[7] = tested on: SCC-3; test: cells; format: functional, cell-based; conditions: Homo sapiens;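 also: cell viability assay measuring inhibition of SCC-3 cell growth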
Description: SANGER: Inhibition of human SCC-3 cell growth in a cell viability assay.

[8] = tested on: SK-MEL3; test: cells; format: functional, cell-based, SK-MEL-3; conditions: Homo sapiens;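 also: growth inhibition of human SK-MEL-3 cells, read out with a cell viability assay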
Description: SANGER: Inhibition of human SK-MEL-3 cell growth in a cell viability assay.

[9] = tested on: OAW-42; test: cells; format: functional, cell-based; conditions: Homo sapiens;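 also: growth inhibition of OAW-42 cells, read out with a cell viability assay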
Description: SANGER: Inhibition of human OAW-42 cell growth in a cell viability assay.

[10] = tested on: BL-70; test: SANGER: Inhibition of human BL-70 cell growth in a cell viability assay.; format: functional, cell-based
[11] = tested on: HCC1599; test: cells; format: functional, cell-based; conditions: Homo sapiens;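 also: growth inhibition of HCC1599 cells, read out in a cell viability assay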
Description: SANGER: Inhibition of human HCC1599 cell growth in a cell viability assay.

[12] = tested on: EHEB; test: cells; format: functional, cell-based; conditions: Homo sapiens;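 also: growth inhibition of human EHEB cells, read out with a cell viability assay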
Description: SANGER: Inhibition of human EHEB cell growth in a cell viability assay.

[13] = tested on: NCI-H1522; test: cells; format: functional, cell-based; conditions: Homo sapiens;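 also: growth inhibition of NCI-H1522 cells, read out with a cell viability assay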
Description: SANGER: Inhibition of human NCI-H1522 cell growth in a cell viability assay.

[14] = tested on: Raji; test: cells; format: functional, cell-based; conditions: Homo sapiens;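 also: cell viability assay measuring inhibition of Raji cell growth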
Description: SANGER: Inhibition of human Raji cell growth in a cell viability assay.

[15] = tested on: HSC-3; test: cells; format: functional, cell-based; conditions: Homo sapiens
Description: SANGER: Inhibition of human HSC-3 cell growth in a cell viability assay.

[16] = tested on: NCI-H716; test: cells; format: functional, cell-based; conditions: Homo sapiens;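 also: growth inhibition of human NCI-H716 cells, measured by a cell viability assay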
Description: SANGER: Inhibition of human NCI-H716 cell growth in a cell viability assay.

[17] = tested on: U2OS; test: cells; format: functional, cell-based, U-2-OS; conditions: Homo sapiens;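 also: growth inhibition of human U-2-OS cells, determined with a cell viability assay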
Description: SANGER: Inhibition of human U-2-OS cell growth in a cell viability assay.

[18] = tested on: NCI-H322M; test: cells; format: functional, cell-based; conditions: Homo sapiens;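 also: cell viability assay measuring inhibition of growth of human NCI-H322M cells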
Description: SANGER: Inhibition of human NCI-H322M cell growth in a cell viability assay.

[19] = tested on: TE-441-T; test: cells; format: functional, cell-based; conditions: Homo sapiens
Description: SANGER: Inhibition of human TE-441-T cell growth in a cell viability assay.

[20] = tested on: C32; test: cells; format: functional, cell-based; conditions: Homo sapiens;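 also: cell viability assay, with IC50 reflecting inhibition of C32 cell growth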
Description: SANGER: Inhibition of human C32 cell growth in a cell viability assay.

[21] = tested on: SW1990; test: cells; format: functional, cell-based; conditions: Homo sapiens
Description: SANGER: Inhibition of human SW1990 cell growth in a cell viability assay.

[22] = tested on: UMUC3; test: cells; format: functional, cell-based; conditions: Homo sapiens;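 also: growth inhibition of human UM-UC-3 cells, read out with a cell viability assay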
Description: SANGER: Inhibition of human UM-UC-3 cell growth in a cell viability assay.

[23] = tested on: CHP-212; test: cells; format: functional, cell-based; conditions: Homo sapiens
Description: SANGER: Inhibition of human CHP-212 cell growth in a cell viability assay.

[24] = tested on: SCC-25; test: cells; format: functional, cell-based; conditions: Homo sapiens;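 also: growth inhibition of SCC-25 cells, measured with a cell viability assay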
Description: SANGER: Inhibition of human SCC-25 cell growth in a cell viability assay.

[25] = tested on: CP50-MEL-B; test: cells; format: functional, cell-based; conditions: Homo sapiens;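 also: growth inhibition of the human cell line, measured with a cell viability read-out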
Description: SANGER: Inhibition of human CP50-MEL-B cell growth in a cell viability assay.

[26] = tested on: HCT-15; test: cells; format: functional, cell-based; conditions: Homo sapiens;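 also: cell viability readout, IC50 reflecting suppression of HCT-15 cell growth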
Description: SANGER: Inhibition of human HCT-15 cell growth in a cell viability assay.

[27] = tested on: PF-382; test: cells; format: functional, cell-based; conditions: Homo sapiens
Description: SANGER: Inhibition of human PF-382 cell growth in a cell viability assay.

[28] = tested on: ST486; test: SANGER: Inhibition of human ST486 cell growth in a cell viability assay.; format: functional, cell-based
[29] = tested on: SW1710; test: cells; format: functional, cell-based; conditions: Homo sapiens;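 also: growth inhibition of SW1710 cells, determined with a cell viability assay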
Description: SANGER: Inhibition of human SW1710 cell growth in a cell viability assay.

[30] = tested on: HCC1569; test: cells; format: functional, cell-based; conditions: Homo sapiens;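 also: growth inhibition of human HCC1569 cells, read out with a cell viability assay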
Description: SANGER: Inhibition of human HCC1569 cell growth in a cell viability assay.

[31] = tested on: SW1088; test: cells; format: functional, cell-based; conditions: Homo sapiens;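 also: growth inhibition of human SW1088 cells, read out by a cell viability assay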
Description: SANGER: Inhibition of human SW1088 cell growth in a cell viability assay.

[32] = tested on: A2058; test: cells; format: functional, cell-based; conditions: Homo sapiens;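 also: reduction of A2058 cell growth, read out with a viability assay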
Description: SANGER: Inhibition of human A2058 cell growth in a cell viability assay.

[33] = tested on: L-540; test: cells; format: functional, cell-based; conditions: Homo sapiens;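 also: growth inhibition of the human L-540 cell line, read out with a viability assay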
Description: SANGER: Inhibition of human L-540 cell growth in a cell viability assay.

[34] = tested on: KYSE-270; test: cells; format: functional, cell-based; conditions: Homo sapiens;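 also: cell growth inhibition measured with a viability assay in the human KYSE-270 line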
Description: SANGER: Inhibition of human KYSE-270 cell growth in a cell viability assay.

[35] = tested on: 8305C; test: cells; format: functional, cell-based; conditions: Homo sapiens
Description: SANGER: Inhibition of human 8305C cell growth in a cell viability assay.

[36] = tested on: NB12; test: cells; format: functional, cell-based; conditions: Homo sapiens;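 also: growth inhibition of human NB12 cells, read out by a cell viability assay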
Description: SANGER: Inhibition of human NB12 cell growth in a cell viability assay.

[37] = tested on: COR-L23; test: cells; format: functional, cell-based; conditions: Homo sapiens;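 also: cell viability assay measuring how strongly compounds suppress growth of COR-L23 cells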
Description: SANGER: Inhibition of human COR-L23 cell growth in a cell viability assay.

[38] = tested on: UMC-11; test: cells; format: functional, cell-based; conditions: Homo sapiens;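 also: growth inhibition of UMC-11 cells, read out with a cell viability assay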
Description: SANGER: Inhibition of human UMC-11 cell growth in a cell viability assay.

[39] = tested on: S-117; test: cells; format: functional, cell-based; conditions: Homo sapiens
Description: SANGER: Inhibition of human S-117 cell growth in a cell viability assay.

[40] = tested on: EB-3; test: cells; format: functional, cell-based; conditions: Homo sapiens;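 also: human EB-3 cells, growth inhibition read out via a cell viability assay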
Description: SANGER: Inhibition of human EB-3 cell growth in a cell viability assay.

[41] = tested on: NCI-H1573; test: cells; format: functional, cell-based; conditions: Homo sapiens;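 also: growth inhibition of NCI-H1573 cells, read out with a cell viability assay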
Description: SANGER: Inhibition of human NCI-H1573 cell growth in a cell viability assay.

[42] = tested on: G-401; test: cells; format: functional, cell-based; conditions: Homo sapiens
Description: SANGER: Inhibition of human G-401 cell growth in a cell viability assay.

[43] = tested on: LC4-1; test: cells; format: functional, cell-based; conditions: Homo sapiens;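 also: growth inhibition of LC4-1 cells, read out with a cell viability assay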
Description: SANGER: Inhibition of human LC4-1 cell growth in a cell viability assay.

[44] = tested on: SK-HEP1; test: cells; format: functional, cell-based, SK-HEP-1; conditions: Homo sapiens;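 also: cell viability readout used to quantify reduction in proliferation of human SK-HEP-1 cells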
Description: SANGER: Inhibition of human SK-HEP-1 cell growth in a cell viability assay.

[45] = tested on: CAL-148; test: cells; format: functional, cell-based; conditions: Homo sapiens
Description: SANGER: Inhibition of human CAL-148 cell growth in a cell viability assay.

[46] = tested on: HCC1806; test: cells; format: functional, cell-based; conditions: Homo sapiens;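 also: growth inhibition of the cancer cell line, determined with a cell viability assay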
Description: SANGER: Inhibition of human HCC1806 cell growth in a cell viability assay.

[47] = tested on: A253 cell line; test: cells; format: functional, cell-based; conditions: Homo sapiens;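 also: growth inhibition of A253 cells, read out with a cell viability assay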
Description: SANGER: Inhibition of human A253 cell growth in a cell viability assay.

[48] = tested on: DMS-273; test: cells; format: functional, cell-based; conditions: Homo sapiens
Description: SANGER: Inhibition of human DMS-273 cell growth in a cell viability assay.

[49] = tested on: YT; test: cells; format: functional, cell-based; conditions: Homo sapiens
Description: SANGER: Inhibition of human YT cell growth in a cell viability assay.

[50] = tested on: CESS; test: SANGER: Inhibition of human CESS cell growth in a cell viability assay.; format: functional, cell-based
[51] = tested on: 647-V; test: cells; format: functional, cell-based; conditions: Homo sapiens;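 also: growth inhibition of 647-V cells, read out with a cell viability assay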
Description: SANGER: Inhibition of human 647-V cell growth in a cell viability assay.

[52] = tested on: HSC-4; test: cells; format: functional, cell-based; conditions: Homo sapiens;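 also: growth inhibition of human HSC-4 cells, read out with a cell viability assay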
Description: SANGER: Inhibition of human HSC-4 cell growth in a cell viability assay.

[53] = tested on: OPM-2; test: cells; format: functional, cell-based; conditions: Homo sapiens;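 also: growth of OPM-2 cells measured with a viability assay, IC50 for suppression of proliferation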
Description: SANGER: Inhibition of human OPM-2 cell growth in a cell viability assay.

[54] = tested on: NCI-H2030; test: cells; format: functional, cell-based; conditions: Homo sapiens;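 also: growth inhibition of human NCI-H2030 cells, read out by a cell viability assay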
Description: SANGER: Inhibition of human NCI-H2030 cell growth in a cell viability assay.

[55] = tested on: NCI-H520; test: cells; format: functional, cell-based; conditions: Homo sapiens;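 also: growth inhibition of NCI-H520 cells, measured by a cell viability assay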
Description: SANGER: Inhibition of human NCI-H520 cell growth in a cell viability assay.

[56] = tested on: YAPC; test: cells; format: functional, cell-based; conditions: Homo sapiens;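 also: growth inhibition of YAPC cells, measured with a cell viability assay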
Description: SANGER: Inhibition of human YAPC cell growth in a cell viability assay.

[57] = tested on: ChaGo-K-1; test: cells; format: functional, cell-based; conditions: Homo sapiens;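 also: growth inhibition of ChaGo-K-1 cells, read out with a cell viability assay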
Description: SANGER: Inhibition of human ChaGo-K-1 cell growth in a cell viability assay.

[58] = tested on: NCI-H1623; test: cells; format: functional, cell-based; conditions: Homo sapiens;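 also: cell viability assay used as the read-out for growth inhibition of NCI-H1623 cells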
Description: SANGER: Inhibition of human NCI-H1623 cell growth in a cell viability assay.

[59] = tested on: KYSE-520 cell line; test: cells; format: functional, cell-based; conditions: Homo sapiens;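 also: growth inhibition of human KYSE-520 cells, read out with a viability assay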
Description: SANGER: Inhibition of human KYSE-520 cell growth in a cell viability assay.

[60] = tested on: SBC-5; test: cells; format: functional, cell-based; conditions: Homo sapiens;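 also: cell viability assay read-out, IC50 is the concentration that inhibits growth of the cells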
Description: SANGER: Inhibition of human SBC-5 cell growth in a cell viability assay.

[61] = tested on: PFSK-1; test: cells; format: functional, cell-based; conditions: Homo sapiens;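 also: cell viability assay measuring how strongly compounds suppress growth of human PFSK-1 cells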
Description: SANGER: Inhibition of human PFSK-1 cell growth in a cell viability assay.

[62] = tested on: HEC-1; test: cells; format: functional, cell-based; conditions: Homo sapiens;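 also: growth inhibition of the cell line, read out with a cell viability assay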
Description: SANGER: Inhibition of human HEC-1 cell growth in a cell viability assay.

[63] = tested on: MKN-7; test: cells; format: functional, cell-based; conditions: Homo sapiens;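 also: growth inhibition of MKN-7 cells, read out with a cell viability assay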
Description: SANGER: Inhibition of human MKN7 cell growth in a cell viability assay.

[64] = tested on: RERF-LC-MS; test: cells; format: functional, cell-based; conditions: Homo sapiens;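 also: growth inhibition of human RERF-LC-MS cells, read out by a cell viability assay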
Description: SANGER: Inhibition of human RERF-LC-MS cell growth in a cell viability assay.

[65] = tested on: NCI-H650; test: cells; format: functional, cell-based; conditions: Homo sapiens;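 also: growth inhibition of NCI-H650 cells, read out by a viability assay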
Description: SANGER: Inhibition of human NCI-H650 cell growth in a cell viability assay.

In the case of CO[C@@]12[C@H](COC(N)=O)C3=C(C(=O)C(C)=C(N)C3=O)N1C[C@@H]1N[C@@H]12 [MITOMYCIN], the pIC50 [1] was 5.57, the pIC50 [2] was 6.63 and the pIC50 [3] was greater than 7.20. It also gave a pIC50 [4] of 5.50, a pIC50 [5] of 5.97 and a pIC50 [6] of 5.76. The pIC50 [7] was greater than 7.20, the pIC50 [8] was 6.15 and the pIC50 [9] was 7.05. It also gave a pIC50 [10] of 5.89, a pIC50 [11] of 6.92 and a pIC50 [12] of 6.17. For the same molecule, the pIC50 [13] was 5.49, the pIC50 [14] was 5.91 and the pIC50 [15] was 7.12. The pIC50 [16] was 5.55, the pIC50 [17] was less than 4.80 and the pIC50 [18] was 5.74. It also gave a pIC50 [19] of 5.80, a pIC50 [20] of 5.82 and a pIC50 [21] of 6.20. It also gave a pIC50 [22] of 6.99, a pIC50 [23] greater than 7.20 and a pIC50 [24] of 6.06. The pIC50 [25] was 6.11, the pIC50 [26] was 6.33 and the pIC50 [27] was 6.60. The pIC50 [28] was 6.31, the pIC50 [29] was 7.14 and the pIC50 [30] was 6.19. The pIC50 [31] was 5.33, the pIC50 [32] was 6.94 and the pIC50 [33] was 7.02. It also gave a pIC50 [34] of 6.99, a pIC50 [35] of 6.81 and a pIC50 [36] of 5.92. The pIC50 [37] was 6.62, the pIC50 [38] was 6.25 and the pIC50 [39] was 6.23. It also gave a pIC50 [40] of 5.50, a pIC50 [41] of 5.84 and a pIC50 [42] of 6.20. It also gave a pIC50 [43] of 5.91, a pIC50 [44] of 6.19 and a pIC50 [45] of 7.75. The pIC50 [46] was 6.87, the pIC50 [47] was 6.46 and the pIC50 [48] was 6.79. The pIC50 [49] was 6.33, the pIC50 [50] was 6.65 and the pIC50 [51] was 7.06. It also gave a pIC50 [52] of 6.36, a pIC50 [53] of 5.20 and a pIC50 [54] of 6.68. The pIC50 [55] was 6.77, the pIC50 [56] was 5.36 and the pIC50 [57] was 5.72. It also gave a pIC50 [58] of 5.99, a pIC50 [59] of 6.11 and a pIC50 [60] greater than 7.20. It also gave a pIC50 [61] of 5.23, a pIC50 [62] of 6.16 and a pIC50 [63] of less than 4.80. It also gave a pIC50 [64] of 5.99 and a pIC50 [65] of 6.46.

In the case of C/C=C(/C)C(=O)O[C@H]1C(C)=C2[C@H]([C@@H]1OC(=O)CCCCCCC)[C@@](C)(OC(C)=O)C[C@H](OC(=O)CCC)[C@@]1(O)[C@H]2OC(=O)[C@@]1(C)O [THAPSIGARGIN], the pIC50 [1] was 7.15, the pIC50 [2] was less than 6.29 and the pIC50 [3] was 8.70. For the same molecule, the pIC50 [4] was 6.48, the pIC50 [5] was less than 6.29 and the pIC50 [6] was 7.06. The pIC50 [7] was 7.38, the pIC50 [8] was 8.19 and the pIC50 [9] was 7.57. The pIC50 [10] was 8.05, the pIC50 [11] was 6.71 and the pIC50 [12] was 7.03. It also gave a pIC50 [13] of less than 6.29, a pIC50 [14] of 7.42 and a pIC50 [15] of 7.95. For the same molecule, the pIC50 [16] was less than 6.29, the pIC50 [17] was 7.35 and the pIC50 [18] was less than 6.29. The pIC50 [19] was 7.31, the pIC50 [20] was 6.51 and the pIC50 [21] was greater than 8.70. The pIC50 [22] was 8.92, the pIC50 [23] was 8.52 and the pIC50 [24] was 8.01. It also gave a pIC50 [25] of 7.95, a pIC50 [26] of 6.81 and a pIC50 [27] of 7.59. It also gave a pIC50 [28] of 8.75, a pIC50 [29] greater than 8.70 and a pIC50 [30] of 7.75. The pIC50 [31] was 6.49, the pIC50 [32] was 8.57 and the pIC50 [33] was 7.12. The pIC50 [34] was 8.83, the pIC50 [35] was 8.57 and the pIC50 [36] was 7.88. The pIC50 [37] was 9.13, the pIC50 [38] was 8.04 and the pIC50 [39] was 7.39. It also gave a pIC50 [40] of 7.72, a pIC50 [41] of 8.79 and a pIC50 [42] of 7.60. The pIC50 [43] was 7.37, the pIC50 [44] was 8.11 and the pIC50 [45] was less than 6.29. For the same molecule, the pIC50 [46] was 8.62, the pIC50 [47] was 8.76 and the pIC50 [48] was greater than 8.70. It also gave a pIC50 [49] of 7.88, a pIC50 [50] of 7.45 and a pIC50 [51] of 7.86. For the same molecule, the pIC50 [52] was less than 6.29, the pIC50 [53] was greater than 8.70 and the pIC50 [54] was 8.39. For the same molecule, the pIC50 [55] was greater than 8.70, the pIC50 [56] was 7.05 and the pIC50 [57] was 8.48. The pIC50 [58] was less than 6.29, the pIC50 [59] was 7.68 and the pIC50 [60] was 8.09. The pIC50 [61] was 7.89, the pIC50 [62] was 7.39 and the pIC50 [63] was less than 6.29. The pIC50 [64] was 8.86 and the pIC50 [65] was 6.53.
